target: T1, P2X7 receptor (Homo sapiens, UniProt Q99572); experiment: P2X7 calcium mobilization assay, high throughput, antagonist activity (Example 4A); assay type: cell-based; conditions: fluorescence response of cells exposed to 80 μM 2′(3′)-O-(4-benzoyl-benzoyl)adenosine 5′-triphosphate; Example 4A; read-out: IC50
T1 construct: host or cells: SH-SY5Y
T1 sequence (Q99572 1-595): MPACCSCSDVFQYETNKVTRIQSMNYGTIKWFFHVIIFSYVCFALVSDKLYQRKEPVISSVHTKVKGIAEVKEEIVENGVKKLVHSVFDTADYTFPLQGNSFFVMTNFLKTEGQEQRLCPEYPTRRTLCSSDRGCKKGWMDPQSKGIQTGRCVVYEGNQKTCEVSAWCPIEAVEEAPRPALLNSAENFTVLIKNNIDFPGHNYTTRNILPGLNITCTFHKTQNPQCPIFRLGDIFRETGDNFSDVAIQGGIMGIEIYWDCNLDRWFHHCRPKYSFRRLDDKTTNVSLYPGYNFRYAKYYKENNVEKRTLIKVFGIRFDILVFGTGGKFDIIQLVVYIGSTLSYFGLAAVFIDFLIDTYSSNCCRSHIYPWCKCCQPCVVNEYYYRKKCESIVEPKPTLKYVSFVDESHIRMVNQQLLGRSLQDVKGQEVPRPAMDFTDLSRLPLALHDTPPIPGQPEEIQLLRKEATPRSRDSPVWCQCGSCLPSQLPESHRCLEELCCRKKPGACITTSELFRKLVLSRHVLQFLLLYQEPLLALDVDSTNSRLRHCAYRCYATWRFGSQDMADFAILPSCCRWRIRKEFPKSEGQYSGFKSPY
Method in brief: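 Antagonism was measured as calcium fluorescence (FLIPR Tetra) in cells seeded one day earlier at 100,000/well, loaded with dye for 1 h and exposed to compound for 1 h at room temperature before agonist. Peak RFU, minus the no-agonist background, was referenced to the mean of the agonist wells.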

IC50 [µM]	Compound
< 2	O=C(NCC12CC3CC(CC(C3)C1)C2)c1cccc2nc(CCc3nnn[nH]3)cn12 [Compound 292, N-(adamantan-1-ylmethyl)-2-(2-(1H-tetrazol-5-yl)ethyl]imidazo[1,2-a]pyridine-5-carboxamide]
< 2	O=C(NCC12CC3CC(CC(C3)C1)C2)c1cccc2nc(CSc3nnc[nH]3)cn12 [Compound 293, N-(adamantan-1-ylmethyl)-2-[(4H-1,2,4-triazol-3-ylthio)methyl]imidazo [1,2-a]pyridine-5-carboxamide]
< 2	O=C(NCC12CC3CC(CC(C3)C1)C2)c1cccc2nc(CN3CC[C@@H](F)C3)cn12 [Compound 294, N-(adamantan-1-ylmethyl)-2-[(3-fluoropyrrolidin-1-yl)methyl]imidazo[1,2-a]pyridine-5-carboxamide]
< 2	N[C@@H]1CCCN(C(=O)Cc2cn3c(C(=O)NCC45CC6CC(CC(C6)C4)C5)cccc3n2)C1 [Compound 295, N-(adamantan-1-ylmethyl)-2-{2-[(3R)-3-aminopiperidin-1-yl]-2-oxoethyl}imidazo[1,2-a]pyridine-5-carboxamide]
< 2	O=C(O)CCc1cn2c(C(=O)NCC34CC5CC(CC(C5)C3)C4)cccc2n1 [Compound 296, 3-{5-[(adamantan-1-ylmethyl)carbamoyl]imidazo[1,2-a]pyridin-2-yl}propanoic acid]
< 2	NCCc1cn2c(C(=O)NCC34CC5CC(CC(C5)C3)C4)cccc2n1 [Compound 297, N-(adamantan-1-ylmethyl)-2-(2-aminoethyl)imidazo [1,2-a]pyridine-5-carboxamide]
< 2	N#Cc1ccc(-c2cn3c(C(=O)NCC45CC6CC(CC(C6)C4)C5)cccc3n2)cc1 [Compound 298, N-(adamantan-1-ylmethyl)-2-(4-cyanophenyl)imidazo [1,2-a]pyridine-5-carboxamide]
< 2	N[C@@H]1CCN(Cc2cn3c(NC(=O)CC45CC6CC(CC(C6)C4)C5)cccc3n2)C1 [Compound 299, 2-adamantan-1-yl-N-(2-{[(3R)-3-aminopyrrolidin-1-yl]methyl}imidazo[1,2-a]pyridin-5-yl)acetamide]
< 2	CC1(C)[C@H]2CC[C@@H](CNC(=O)c3cccc4nc(C(=O)N5CCCNCC5)cn34)[C@@H]1C2 [Compound 304, 2-(1,4-diazepan-1-ylcarbonyl)-N-{[(1S,2R,5S)-6,6-dimethylbicyclo[3.1.1]hept-2-yl]methyl}imidazo[1,2-a]pyridine-5-carboxamide]
< 2	C[C@@H]1CNCCN1C(=O)c1cn2c(C(=O)NC[C@@H]3CC[C@H]4C[C@@H]3C4(C)C)cccc2n1 [Compound 305, N-{[(1S,2R,5S)-6,6-dimethylbicyclo[3.1.1]hept-2-yl]methyl}-2-{[(2R)-2-methylpiperazin-1-yl]carbonyl}imidazo[1,2-a]pyridine-5-carboxamide]
< 2	CC(C)[C@H]1CN(C(=O)c2cn3c(C(=O)NC[C@@H]4CC[C@H]5C[C@@H]4C5(C)C)cccc3n2)CCN1 [Compound 308]
< 2	CN(C(=O)c1cn2c(C(=O)NC[C@@H]3CC[C@H]4C[C@@H]3C4(C)C)cccc2n1)C1CCCNC1 (stereo partly drawn) [Compound 311, 5-N-{[(1S,2R,5S)-6,6-dimethylbicyclo[3.1.1]hept-2-yl]methyl}-2-N-methyl-2-N-piperidin-3-ylimidazo[1,2-a]pyridine-2,5-dicarboxamide]
< 2	CNC1CCN(C(=O)c2cn3c(C(=O)NC[C@@H]4CC[C@H]5C[C@@H]4C5(C)C)cccc3n2)C1 (stereo partly drawn) [Compound 313, N-{[(1S,2R,5S)-6,6-dimethylbicyclo[3.1.1]hept-2-yl]methyl}-2-{[3-(methylamino)pyrrolidin-1-yl]carbonyl}imidazo[1,2-a]pyridine-5-carboxamide]
< 2	CC1(C)[C@H]2CC[C@@H](CNC(=O)c3cccc4nc(C(=O)N5CCC(N)C5)cn34)[C@@H]1C2 (stereo partly drawn) [Compound 315, 2-[(3-aminopyrrolidin-1-yl)carbonyl]-N-{[(1S,2R,5S)-6,6-dimethylbicyclo[3.1.1]hept-2-yl]methyl}imidazo[1,2-a]pyridine-5-carboxamide]
< 2	CN(C)CCN(C(=O)c1cn2c(C(=O)NC[C@@H]3CC[C@H]4C[C@@H]3C4(C)C)cccc2n1)C1CCNCC1(C)C (stereo partly drawn) [Compound 319, 2-N-[2-(dimethylamino)ethyl]-5-N-{[(1S,2R,5S)-6,6-dimethylbicyclo[3.1.1]hept-2-yl]methyl}-2-N-(3,3-dimethylpiperidin-4-yl)imidazo[1,2-a]pyridine-2,5-dicarboxamide]
< 2	CC1(C)[C@H]2CC[C@@H](CNC(=O)c3cccc4nc(C(=O)N5CCCC(CN)C5)cn34)[C@@H]1C2 (stereo partly drawn) [Compound 322, 2-{[3-(aminomethyl)piperidin-1-yl]carbonyl}-N-{[(1S,2R,5S)-6,6-dimethylbicyclo[3.1.1]hept-2-yl]methyl}imidazo[1,2-a]pyridine-5-carboxamide]
< 2	CC1(C)[C@H]2CC[C@@H](CNC(=O)c3cccc4nc(C(=O)N5CCCC5CN)cn34)[C@@H]1C2 (stereo partly drawn) [Compound 324, 2-{[2-(aminomethyl)pyrrolidin-1-yl]carbonyl}-N-{[(1S,2R,5S)-6,6-dimethylbicyclo[3.1.1]hept-2-yl]methyl}imidazo[1,2-a]pyridine-5-carboxamide]
< 2	CC1(C)[C@H]2CC[C@@H](CNC(=O)c3cccc4nc(C(=O)N5CCCC(N)C5)cn34)[C@@H]1C2 (stereo partly drawn) [Compound 325, 2-[(3-aminopiperidin-1-yl)carbonyl]-N-{[(1S,2R,5S)-6,6-dimethylbicyclo[3.1.1]hept-2-yl]methyl}imidazo[1,2-a]pyridine-5-carboxamide]
< 2	CC1(C)[C@H]2CC[C@@H](CNC(=O)c3cccc4nc(C(=O)N5CCC(N)CC5)cn34)[C@@H]1C2 [Compound 326, 2-[(4-aminopiperidin-1-yl)carbonyl]-N-{[(1S,2R,5S)-6.6-dimethylbicyclo[3.1.1]hept-2-yl]methyl}imidazo[1,2-a]pyridine-5-carboxamide]
< 2	CC1(C)[C@H]2CC[C@@H](CNC(=O)c3cccc4nc(C(=O)N5CC[C@H](N)C5)cn34)[C@@H]1C2 [Compound 330, 2-{[(3S)-3-aminopyrrolidin-1-yl]carbonyl}-N-{[(1S,2R,5S)-6.6-dimethylbicyclo{3.1.1]hept-2-yl]methyl}imidazo[1,2-a]pyridine-5-carboxamide]
< 2	CC1(C)[C@H]2CC[C@@H](CNC(=O)c3cccc4nc(C(=O)NC5CCNC5)cn34)[C@@H]1C2 (stereo partly drawn) [Compound 333, 5-N-{[(1S,2R,5S)-6,6-dimethylbicyclo[3.1.1]hept-2-yl]methyl}-2-N-pyrrolidin-3-ylimidazo[1,2-a]pyridine-2,5-dicarboxamide]
< 2	CC1(C)[C@H]2CC[C@@H](CNC(=O)c3cccc4nc(C(=O)N5C6CCC5CC(N)C6)cn34)[C@@H]1C2 (stereo partly drawn) [Compound 335, 2-[(3-amino-8-azabicyclo[3.2.1]oct-8-yl)carbonyl]-N-{[(1S,2R,5S)-6,6-dimethylbicyclo[3.1.1]hept-2-yl]methyl}imidazo[1,2-a]pyridine-5-carboxamide]
< 2	CC1(C)[C@H]2CC[C@@H](CNC(=O)c3cccc4nc(C(=O)N5CCOC(CN)C5)cn34)[C@@H]1C2 (stereo partly drawn) [Compound 336, 2-{[2-(aminomethyl)morpholin-4-yl]carbonyl}-N-{[(1S,2R,5S)-6,6-dimethylbicyclo[3.1.1]hept-2-yl]methyl}imidazo[1,2-a]pyridine-5-carboxamide]

Reference: US8431593B2, “Heteroaryl amide derivatives” (H. Lundbeck A/S, priority 2006, dated 2013)
